One assay deals with Parkinson's disease. Particulars: person. As to the method:
A person presents with current diagnosis of Parkinson's disease with motor complications and responsiveness to levodopa or dopa agonists. They are buccally administered 100 mg at every 12 hours for 180 days. At 1, 90, 180, 270 and 360 days they are tested/retested with a battery of neurological tests including Unified Parkinson's Disease Rating Scale (UPDRS), Time Tests, Hoehn and Yahr (HY) Scale, Clinical Global Impression of Severity (CGIS), Clinical Impression of Severity Index (CISI-PD), Patient Global Impression of Severity (PGIS).
A person presents with diagnosis of Parkinson's disease. They are administered peptide by intranasal spray at a dosage of 25 mg, daily for 60 days. At 1, 90, 180, 270 and 360 days they are tested/retested with a battery of neurological tests including Unified Parkinson's Disease Rating Scale (UPDRS), Time Tests, Hoehn and Yahr (HY) Scale, Clinical Global Impression of Severity (CGIS), Clinical Impression of Severity Index (CISI-PD), Patient Global Impression of Severity (PGIS).

A further assay relates to Alzheimer's disease. To be noted: person.
The subject of assay [1] is substantia nigra levels of DA, DOPAC, HVA, 5-HT, 5-HIAA, and NE. Nature of the assay: Substantia nigra neurochemistry (RP-HPLC EC) after repeated intranasal administration. Type of assay: in vivo, normal Fischer 344 rats. To be noted: for Turnover ratio 5-HIAA/5-HT / Turnover ratio (HVA + DOPAC)/DA / Turnover ratio DOPAC/DA / Turnover ratio HVA/DA / 5-HIAA / 5-HT / DA / DOPAC / HVA / NE: 5 days a week for 3 weeks, combined left and right substantia nigra, mean; for 5-HIAA / 5-HT / DA / DOPAC / HVA / NE: wet tissue weight; for decrease of NE levels: versus vehicle treated rats. Here is the method:
(§1) Groups of 12, 3 month old Fischer 344 rats were intranasally dosed 50 microliters (4 single 12.5 microliter administrations, 2 per nare, 5 minutes between each nare administration) of either vehicle, 1.1 mg/mL, or 3.5 mg/mL of AV6403 [Leu-Ala-Pro-Ala-Glu-Asp-NH2] (SEQ ID NO: 1) once a day for 5 days a week, for 3 weeks (5 consecutive days of dosing, 2 off days, repeated total of 3 times). Following day 21, rats were euthanized and brain tissue was recovered and sections removed and weighed for neurochemical analysis by Reverse-Phase High Pressure Liquid Chromatography Electrochemical detection (RP-HPLC EC).
In the SN [TABLE 3], treatment of AV6403 led to about a 13% increase in DOPAC and a 11% reduction of HVA, depending on the dosage, [FIG. 4A-FIG. 4C] resulting in an increase in dopamine turnover (20% [DOPAC/DA] for 3.5 mg/mL dosage; 23% [(HVA+DOPAC)/DA] for 1.1 mg/mL) relative to saline vehicle treated rats [FIG. 5A-FIG. 5B]. Treatment with 1.1 mg/mL AV6403 decreased 5-HT by 10% in the SN, resulting in a 16% increase in serotonin turnover [5-HIAA/5-HT] [TABLE 4]. The higher dosage (3.5 mg/mL AV6403) increased NE levels in the SN by about 23% versus vehicle treated rats, respectively [TABLE 3].
(§2) Groups of 12, 3 month old Fischer 344 rats were intranasally dosed 50 microliters (4 single 12.5 microliter administrations, 2 per nare, 5 minutes between each nare administration) of either vehicle, 1.2 mg/mL, or 3.6 mg/mL of AV7624 [Glu-Ala-Pro-Phe-Glu-Asp-NH2] once a day for 5 days a week, for 3 weeks (5 consecutive days of dosing, 2 off days, repeated total of 3 times). Following day 21, rats were euthanized and brain tissue was recovered and sections removed and weighed for neurochemical analysis by RP-HPLC EC.
In the SN [TABLE 7], treatment with 3.6 mg/mL AV7624 led to about a 23%, 22%, and a 6% decrease in DA, DOPAC, and HVA [FIG. 9A-FIG. 9C], relative to saline vehicle treated rats, with minor effects on dopamine turnover [FIG. 10A-FIG. 10B]. Treatment with 3.6 mg/mL AV7624 decreased 5-HT by 20% and 5-HIAA by about 18% in the SN [TABLE 7], resulting in a minor effect on serotonin turnover [TABLE 8]. NE levels in the SN were decreased (17% and 13%) by both dosages (1.2 mg/mL and 3.6 mg/mL) versus vehicle treated rats, respectively [TABLE 7].

Assay [2] relates to striatum levels of DA, DOPAC, HVA, 5-HT, 5-HIAA, and NE. Briefly: Striatum neurochemistry (RP-HPLC EC) after repeated intranasal administration. To be noted: for Turnover ratio 5-HIAA/5-HT / Turnover ratio (HVA + DOPAC)/DA / Turnover ratio DOPAC/DA / Turnover ratio HVA/DA / 5-HT / 5 HIAA / DA / DOPAC / HVA / NE: 5 days a week for 3 weeks, combined left and right striatum, mean; for 5-HT / 5 HIAA / DA / DOPAC / HVA / NE: wet tissue weight. The format is in vivo, normal Fischer 344 rats. Here is the method:
as §1
Dopamine [DA], its major metabolites 3,4-Dihydroxy-Phenylacetic Acid (DOPAC) and Homovanillic Acid (HVA), 5-hydroxytryptamine (5-HT, serotonin), its metabolite 5-hydroxyindoleacetic acid (5-HIAA), and norepinephrine (NE) were measured in the striatum and substantia nigra (SN) for each group. In the striatum [TABLE 1], 1.1 mg/mL dosing of AV6403 led to a 20% and 25% reduction of DA and HVA levels [FIG. 1A-FIG. 1C], respectively, resulting in an increase in dopamine turnover (22% [DOPAC/DA] and 16% [[(HVA+DOPAC)/DA]), relative to saline vehicle treated rats [FIG. 2A-FIG. 2B]. […] NE levels were reduced in the striatum with about a 36% reduction for AV6403 1.1 mg/mL dosage versus vehicle [TABLE 1].
as §2
DA, DOPAC, HVA, 5-HT, 5-HIAA, and NE were measured in the striatum and SN for each group. In the striatum [TABLE 5], 3.6 mg/mL dosing of AV7624 led to an approximate 18%, 39%, and 30% reduction of DA, DOPAC, and HVA levels [FIG. 6A-FIG. 6C], respectively, resulting in an about 18% decrease in dopamine turnover ([DOPAC/DA] and [(HVA+DOPAC)/DA]), relative to saline vehicle treated rats [FIG. 7A-FIG. 7B]. […] NE levels were reduced in the striatum in a dose dependent manner, with about a 32% reduction for the AV7624 3.6 mg/mL dosage versus vehicle [TABLE 5]

Where [3] appears, read: 3.6 mg/mL intranasal, SN, relative to saline vehicle treated rats.
Where [4] appears, read: 3.6 mg/mL intranasal, striatum, relative to saline vehicle treated rats.
Where [5] appears, read: 3.6 mg/mL repeated intranasal, striatum.

Like-named read-outs stand apart in the source and are kept apart here. Where no end group is shown, it is not given here.

As to “Cyclo (cys-Leucine-Glycine-Proline-Phenylalanine-Serine-Glutamate-cys [SEQ ID NO: 5]”, the “additional test loss from day 1 over 360 days” value in the assay on Parkinson's disease (buccal 100 mg every 12 hours for 180 days) is given as “minimal to no additional test loss”.
“D-Glutamate-Alanine-Proline-Phenylalanine-D-Alanine-Glycine-NH2 [SEQ ID NO: 7]”: the “cognitive loss from day 1 over 360 days” value in the assay with Alzheimer's disease (Alzheimer's Disease, buccal 25 mg daily for 60 days) is on record as “minimal to no cognitive loss”.
Turning to “Glu-Ala-Pro-Phe-Glu-Asp-NH2 (EAPFED-NH2) [AV7624]”, in assay [1] (1.2 mg/mL intranasal), the “Turnover ratio 5-HIAA/5-HT” value worked out at 0.58, the “Turnover ratio (HVA + DOPAC)/DA” value was determined as 0.34, the “Turnover ratio DOPAC/DA” value is given as 0.24 and the “Turnover ratio HVA/DA” value is 0.10. Also, in assay [1] (1.2 mg/mL intranasal), the 5-HIAA came out at 886 ng/g, the 5-HT is 1546 ng/g, the DA was 1918 ng/g and the DOPAC amounted to 472 ng/g. Further, in assay [1] (1.2 mg/mL intranasal), the HVA came to 184 ng/g and the NE was 727 ng/g. In addition, in assay [1] (1.2 mg/mL intranasal, SN), the “decrease of NE levels” value came out at 17%. Besides, in assay [1] (3.6 mg/mL intranasal), the “Turnover ratio 5-HIAA/5-HT” value was found to be 0.57, the “Turnover ratio (HVA + DOPAC)/DA” value was 0.35, the “Turnover ratio DOPAC/DA” value is 0.22 and the “Turnover ratio HVA/DA” value turned out to be 0.13. Further, in assay [1] (3.6 mg/mL intranasal), the 5-HIAA was 737 ng/g, the 5-HT is 1251 ng/g, the DA is 1523 ng/g and the DOPAC is recorded as 376 ng/g. Moreover, in assay [1] (3.6 mg/mL intranasal), the HVA turned out to be 177 ng/g and the NE is listed as 767 ng/g. Also, in assay [1] (3.6 mg/mL intranasal, SN), the “decrease of 5-HIAA” value is “about 18%”, the “decrease of 5-HT” value was determined as 20%, the “effect on serotonin turnover” value is on record as “minor effect” and the “effects on dopamine turnover” value is recorded as “minor effects”. In assay [1] (3.6 mg/mL intranasal, SN), the “decrease of NE levels” value is reported as 13%. Besides, in assay [1] (setting [3]), the “decrease in DA” value is around 23%, the “decrease in DOPAC” value is on record as around 22% and the “decrease in HVA” value is recorded as around 6%. In assay [2] (1.2 mg/mL intranasal), the “Turnover ratio 5-HIAA/5-HT” value stood at 1.15, the “Turnover ratio (HVA + DOPAC)/DA” value worked out at 0.38, the “Turnover ratio DOPAC/DA” value amounted to 0.28 and the “Turnover ratio HVA/DA” value is given as 0.09. For the same substance, in assay [2] (1.2 mg/mL intranasal), the 5-HT is reported as 610 ng/g, the “5 HIAA” value worked out at 674 ng/g, the DA is reported as 13521 ng/g and the DOPAC is 3906 ng/g. In assay [2] (1.2 mg/mL intranasal), the HVA is 1253 ng/g and the NE was 83 ng/g. Besides, in assay [2] (3.6 mg/mL intranasal), the “Turnover ratio 5-HIAA/5-HT” value is given as 1.05, the “Turnover ratio (HVA + DOPAC)/DA” value was 0.33, the “Turnover ratio DOPAC/DA” value is given as 0.24 and the “Turnover ratio HVA/DA” value came to 0.09. For the same substance, in assay [2] (3.6 mg/mL intranasal), the 5-HT stood at 487 ng/g, the “5 HIAA” value is listed as 499 ng/g, the DA amounted to 10762 ng/g and the DOPAC is recorded as 2478 ng/g. For the same substance, in assay [2] (3.6 mg/mL intranasal), the HVA is recorded as 915 ng/g and the NE came to 67 ng/g. Also, in assay [2] (setting [4]), the “decrease in dopamine turnover ([DOPAC/DA] and [(HVA+DOPAC)/DA])” value is recorded as “about 18%”; the “reduction of DA levels” value is on record as “about 18%”; the “reduction of DOPAC levels” value was around 39%; the “reduction of HVA levels” value is around 30%. Further, the “reduction of NE levels” value in assay [2] (3.6 mg/mL intranasal, striatum, versus vehicle) is given as around 32%. Besides, in assay [2] (setting [5]), the “effect on turnover [5-HIAA/5-HT]” value is “small effect”, the “reduction of 5-HIAA levels” value was around 30% and the “reduction of 5-HT levels” value is around 28%. Further, the “effects on DA, 5-HT and their metabolites” value in assay [2] (lower dosage (1.2 mg/mL) intranasal, striatum) was “less robust effects”.
In the case of “Glutamate-deuterated Lysine-Proline-D-Phenylalanine-deuterated Leucine-NH2 [SEQ ID NO: 8]”, the “additional UPDRS loss from day 1 over 360 days” value in the assay on Parkinson's disease (intranasal spray 25 mg daily for 60 days) is reported as “minimal to no additional UPDRS loss”.
As to “Leucine-Glycine-Proline-Phenylalanine-Serine-Glutamate”, the “cognitive loss from day 1 over 360 days” value in the assay on Alzheimer's disease (mild cognitive impairment Alzheimer's disease, intranasal 5 mg once per day for 360 days) is recorded as “minimal to no cognitive loss”.
Turning to “Tryptophan-D-Alanine-Proline-D-Lysine-Asparagine-NH2 [SEQ ID NO: 6]”, in the assay on Alzheimer's disease (Alzheimer's disease, intranasal 100 mg once a week for 30 days), the “cognitive loss from day 1 over 360 days” value is “minimal to no cognitive loss”.
